PubChem BioAssay (NCI)
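Each compound was tested at five concentrations against cells in 96-well plates for 48 hours. GI50: concentration for 50% inhibition of growth. The concentration for full growth arrest is given as TGI.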

Experiments:
Assay in all cases: inhibition of tumour cell growth, NCI panel, 48 h
[1] = test system: MOLT-4 leukemia
[2] = test system: OVCAR-4 ovarian
[3] = test system: K-562 leukemia
[4] = test system: SK-MEL-5 melanoma
[5] = test system: SF-295 CNS
[6] = test system: NCI-H23 lung
[7] = test system: RPMI-8226 leukemia
[8] = test system: TK-10 renal
[9] = test system: LOX IMVI melanoma
[10] = test system: SNB-75 CNS
[11] = test system: SW-620 colon
[12] = test system: NCI-H522 lung
[13] = test system: SF-539 CNS
[14] = test system: A498 renal
[15] = test system: KM12 colon
[16] = test system: HT29 colon
[17] = test system: HCT-15 colon
[18] = test system: UACC-257 melanoma
[19] = test system: CCRF-CEM leukemia
[20] = test system: HCT-116 colon
[21] = test system: MCF7 breast
[22] = test system: HOP-62 NSCLC
[23] = test system: U251 CNS
[24] = test system: T-47D breast
[25] = test system: OVCAR-5 ovarian
[26] = test system: NCI-H226 lung
[27] = test system: SK-OV-3 ovarian
[28] = test system: HS 578T breast
[29] = test system: M14 melanoma
[30] = test system: SF-268 CNS
[31] = test system: SR leukemia
[32] = test system: SK-MEL-2 melanoma
[33] = test system: DU-145 prostate
[34] = test system: MDA-MB-435
[35] = test system: HOP-92 NSCLC
[36] = test system: ACHN renal
[37] = test system: IGROV1 ovarian
[38] = test system: PC-3 prostate
[39] = test system: HCC-2998 colon
[40] = test system: MDA-N
[41] = test system: EKVX NSCLC
[42] = test system: CAKI-1 renal
[43] = test system: OVCAR-3 ovarian
[44] = test system: HL-60(TB) leukemia
[45] = test system: SK-MEL-28 melanoma
[46] = test system: RXF 393 renal
[47] = test system: UO-31 renal
[48] = test system: OVCAR-8 ovarian
[49] = test system: MDA-MB-231 breast
[50] = test system: NCI-H460 lung
[51] = test system: NCI/ADR-RES ovarian
[52] = test system: 786-0 renal
[53] = test system: SNB-19 CNS
[54] = test system: SN12C renal
[55] = test system: MALME-3M melanoma
[56] = test system: UACC-62 melanoma
[57] = test system: COLO 205 colon
[58] = test system: A549 NSCLC
[59] = test system: BT-549 breast

Cc1cc2c(cc1Cl)SC(c1ccccc1)C(=O)NS2(=O)=O (centres undefined)
TGI [1]: 60.7 µM
TGI [2]: > 100 µM
TGI [3]: > 100 µM
TGI [4]: 48.8 µM
TGI [5]: 95.6 µM
TGI [6]: 56.2 µM
TGI [7]: > 100 µM
TGI [8]: > 100 µM
TGI [9]: > 100 µM
TGI [10]: 87 µM
TGI [11]: > 100 µM
TGI [12]: 59.7 µM
TGI [13]: 73.3 µM
TGI [14]: 75.5 µM
TGI [15]: > 100 µM
TGI [16]: > 100 µM
TGI [17]: 64 µM
TGI [18]: 88.5 µM
TGI [19]: > 100 µM
TGI [20]: 45.6 µM
TGI [21]: > 100 µM
TGI [22]: > 100 µM
TGI [23]: 60.5 µM
TGI [24]: 84.6 µM
TGI [25]: > 100 µM
TGI [26]: > 100 µM
TGI [27]: > 100 µM
TGI [28]: 59.4 µM
TGI [29]: > 100 µM
TGI [30]: > 100 µM
TGI [31]: 73.8 µM
TGI [32]: 32.9 µM
TGI [33]: > 100 µM
TGI [34]: > 100 µM
TGI [35]: > 100 µM
TGI [36]: > 100 µM
TGI [37]: > 100 µM
TGI [38]: 70.7 µM
TGI [39]: 70.8 µM
TGI [40]: > 100 µM
TGI [41]: > 100 µM
TGI [42]: > 100 µM
TGI [43]: 53.4 µM
TGI [44]: 58.9 µM
TGI [45]: > 100 µM
TGI [46]: > 100 µM
TGI [47]: 75.1 µM
TGI [48]: > 100 µM
TGI [49]: > 100 µM
TGI [50]: 86.1 µM
TGI [51]: 91.9 µM
TGI [52]: > 100 µM

CC(C)(C)OC(=O)CC(NC(=O)OC(C)(C)C)C(=O)N[C@@H]1CCCC[C@H]1C(=O)OCc1ccccc1 (some centres undefined)
TGI [1]: 89.1 µM
TGI [2]: > 100 µM
TGI [3]: > 100 µM
TGI [4]: 24.5 µM
TGI [5]: 70.2 µM
TGI [6]: 85.3 µM
TGI [7]: 95.4 µM
TGI [8]: 79.6 µM
TGI [9]: > 100 µM
TGI [10]: > 100 µM
TGI [11]: > 100 µM
TGI [13]: 64 µM
TGI [15]: > 100 µM
TGI [16]: 59.1 µM
TGI [53]: 69.3 µM
TGI [17]: 39.4 µM
TGI [18]: 89.4 µM
TGI [19]: 83.2 µM
TGI [20]: 52.5 µM
TGI [21]: 85.5 µM
TGI [54]: 48.7 µM
TGI [22]: > 100 µM
TGI [23]: 61.4 µM
TGI [24]: 59.3 µM
TGI [25]: > 100 µM
TGI [55]: > 100 µM
TGI [26]: 60.3 µM
TGI [27]: 65 µM
TGI [28]: 48 µM
TGI [29]: > 100 µM
TGI [56]: 60.8 µM
TGI [30]: > 100 µM
TGI [31]: > 100 µM
TGI [32]: 61.1 µM
TGI [33]: 99.8 µM
TGI [57]: 38.2 µM
TGI [34]: 92.2 µM
TGI [35]: > 100 µM
TGI [36]: > 100 µM
TGI [37]: > 100 µM
TGI [38]: > 100 µM
TGI [39]: 64.7 µM
TGI [40]: > 100 µM
TGI [41]: > 100 µM
TGI [42]: > 100 µM
TGI [43]: > 100 µM
TGI [44]: 68.9 µM
TGI [45]: > 100 µM
TGI [46]: > 100 µM
TGI [58]: 93.4 µM
TGI [47]: 53.8 µM
TGI [48]: > 100 µM
TGI [49]: > 100 µM
TGI [50]: > 100 µM
TGI [51]: > 100 µM
TGI [52]: > 100 µM

CC(=O)Nc1ccc(/C=C/C(=O)c2ccccc2)cc1
GI50 [1]: 5.55 µM
TGI [1]: 68.4 µM
GI50 [2]: 17.2 µM
TGI [2]: 45.1 µM
GI50 [3]: 3.28 µM
TGI [3]: > 100 µM
GI50 [4]: 16.2 µM
TGI [4]: 30.3 µM
GI50 [5]: 14.4 µM
TGI [5]: 31.7 µM
GI50 [6]: 17.5 µM
TGI [6]: 43.2 µM
GI50 [7]: 3.69 µM
TGI [7]: 17.8 µM
GI50 [8]: 14.6 µM
TGI [8]: 29.8 µM
GI50 [9]: 4.71 µM
TGI [9]: 18.9 µM
GI50 [10]: 18.2 µM
TGI [10]: 42.2 µM
GI50 [11]: 4.32 µM
TGI [11]: 17.1 µM
GI50 [12]: 6.85 µM
TGI [12]: 23.2 µM
GI50 [13]: 14 µM
TGI [13]: 32.9 µM
GI50 [14]: 15.9 µM
TGI [14]: 36.7 µM
GI50 [15]: 4.47 µM
TGI [15]: 16 µM
GI50 [16]: 8.29 µM
TGI [16]: 24.9 µM
GI50 [53]: 13.5 µM
TGI [53]: 34.1 µM
GI50 [17]: 7.54 µM
TGI [17]: 37.4 µM
GI50 [18]: 20.7 µM
TGI [18]: 54.7 µM
GI50 [19]: 3.36 µM
TGI [19]: 16.6 µM
GI50 [20]: 3.98 µM
TGI [20]: 15.5 µM
GI50 [21]: 3.5 µM
TGI [21]: 13.9 µM
GI50 [54]: 12.9 µM
TGI [54]: 29.5 µM
GI50 [22]: 14.8 µM
TGI [22]: 29.3 µM
GI50 [23]: 4.61 µM
TGI [23]: 17.7 µM
GI50 [24]: 13.8 µM
TGI [24]: 42.3 µM
GI50 [25]: 18.3 µM
TGI [25]: 45.3 µM
GI50 [55]: 16.7 µM
TGI [55]: 36.9 µM
GI50 [26]: 27.9 µM
TGI [26]: > 100 µM
GI50 [27]: 27.1 µM
TGI [27]: 96 µM
GI50 [59]: 20.1 µM
TGI [59]: 41.2 µM
GI50 [28]: 5.97 µM
TGI [28]: 43.3 µM
GI50 [29]: 16 µM
TGI [29]: 33.3 µM
GI50 [56]: 17.8 µM
TGI [56]: 39.2 µM
GI50 [30]: 15.9 µM
TGI [30]: 37.5 µM
GI50 [31]: 3.24 µM
TGI [31]: 22 µM
GI50 [32]: 19.7 µM
TGI [32]: 35.5 µM
GI50 [33]: 3.13 µM
TGI [33]: 10.6 µM
GI50 [57]: 14.8 µM
TGI [57]: 28 µM
GI50 [34]: 17.4 µM
TGI [34]: 50.5 µM
GI50 [35]: 17.9 µM
TGI [35]: 51.1 µM
GI50 [36]: 13.1 µM
TGI [36]: 29.6 µM
GI50 [37]: 9.44 µM
TGI [37]: 30.6 µM
GI50 [38]: 23.2 µM
TGI [38]: 66.2 µM
GI50 [39]: 15.5 µM
TGI [39]: 29.7 µM
GI50 [41]: 16.6 µM
TGI [41]: 33.6 µM
GI50 [42]: 3.77 µM
TGI [42]: 16.2 µM
GI50 [43]: 7.41 µM
TGI [43]: 20.1 µM
GI50 [44]: 24.8 µM
TGI [44]: 81.2 µM
GI50 [45]: 20.5 µM
TGI [45]: 44.2 µM
GI50 [46]: 13.9 µM
TGI [46]: 27.5 µM
GI50 [58]: 20.5 µM
TGI [58]: 45.4 µM
GI50 [47]: 5.3 µM
TGI [47]: 21.2 µM
GI50 [48]: 12.3 µM
TGI [48]: 30.4 µM
GI50 [49]: 17.7 µM
TGI [49]: 44.6 µM
GI50 [50]: 17.6 µM
TGI [50]: 41.6 µM
GI50 [51]: 17.4 µM
TGI [51]: 73.1 µM
GI50 [52]: 23.9 µM
TGI [52]: 53.4 µM
